The results in this text go back to patent US12478680B2, “Hydrogels with biodegradable crosslinking” (ProLynx LLC, priority 2011, dated 2025).

The conditions of this data set: pH 7.4.

With myoglobin, the “t1/2 for release into solution” value was around 20 min.

For carbonic anhydrase, the “t1/2 for release into solution” value was 24 min.
